# Molecular target: Small conductance calcium-activated potassium channel protein 2, KCNN2 (Homo sapiens) (UniProt Q9H2S1)
# Test: Binding affinity to SK2 (unknown origin)
# Sequence of Small conductance calcium-activated potassium channel protein 2, KCNN2 (Homo sapiens) (Q9H2S1 whole entry, looked up): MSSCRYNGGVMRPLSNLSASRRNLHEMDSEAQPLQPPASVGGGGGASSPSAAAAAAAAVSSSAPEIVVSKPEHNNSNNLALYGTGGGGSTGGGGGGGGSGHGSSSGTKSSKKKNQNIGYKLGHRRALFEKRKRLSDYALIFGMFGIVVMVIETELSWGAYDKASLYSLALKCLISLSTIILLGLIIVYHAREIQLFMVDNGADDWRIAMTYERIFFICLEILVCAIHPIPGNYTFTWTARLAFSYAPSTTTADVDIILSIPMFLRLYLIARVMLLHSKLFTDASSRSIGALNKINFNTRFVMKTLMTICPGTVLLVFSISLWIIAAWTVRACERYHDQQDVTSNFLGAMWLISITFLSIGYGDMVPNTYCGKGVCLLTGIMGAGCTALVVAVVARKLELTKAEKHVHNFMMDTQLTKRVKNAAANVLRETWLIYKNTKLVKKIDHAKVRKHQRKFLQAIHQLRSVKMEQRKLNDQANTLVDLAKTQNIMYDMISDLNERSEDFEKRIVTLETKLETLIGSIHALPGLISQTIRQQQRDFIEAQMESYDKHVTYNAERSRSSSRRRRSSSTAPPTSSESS
row,SMILES,EC50 [µM]
1,FC(F)(F)c1ccc2c(Nc3ccc(Cl)nc3)n[nH]c2c1,> 10
2,N#Cc1ccc(-c2n[nH]c3cc(OC(F)(F)F)ccc23)cc1,> 10
